Reference: PubChem BioAssay (NCI)
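Compound exposure: 48 hours, 5 concentrations, 96-well plates. Definition used: TGI = concentration required for complete inhibition of growth.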

Legend:
Assay in all cases: NCI-60 cell line screen, 48 h
[1] = test system: RXF 393 renal
[2] = test system: UACC-257 melanoma
[3] = test system: OVCAR-3 ovarian
[4] = test system: LXFL 529 NSCLC
[5] = test system: RPMI-8226 leukemia
[6] = test system: RXF-631 renal
[7] = test system: SNB-78 CNS
[8] = test system: DLD-1 colon
[9] = test system: SNB-19 CNS
[10] = test system: SNB-75 CNS
[11] = test system: XF 498 CNS
[12] = test system: KM12 colon
[13] = test system: HOP-18 NSCLC
[14] = test system: OVCAR-8 ovarian
[15] = test system: U251 CNS
[16] = test system: HL-60(TB) leukemia
[17] = test system: OVCAR-5 ovarian
[18] = test system: A498 renal
[19] = test system: M14 melanoma
[20] = test system: NCI-H460 lung
[21] = test system: SN12C renal
[22] = test system: KM20L2 colon
[23] = test system: M19-MEL melanoma
[24] = test system: NCI-H226 lung
[25] = test system: CAKI-1 renal
[26] = test system: SK-MEL-5 melanoma
[27] = test system: CCRF-CEM leukemia
[28] = test system: HOP-92 NSCLC
[29] = test system: SK-OV-3 ovarian
[30] = test system: OVCAR-4 ovarian
[31] = test system: NCI-H522 lung
[32] = test system: HT29 colon
[33] = test system: UO-31 renal
[34] = test system: HCC-2998 colon
[35] = test system: IGROV1 ovarian
[36] = test system: SK-MEL-28 melanoma
[37] = test system: HOP-62 NSCLC
[38] = test system: SW-620 colon
[39] = test system: TK-10 renal
[40] = test system: A549 NSCLC
[41] = test system: UACC-62 melanoma
[42] = test system: NCI-H23 lung
[43] = test system: 786-0 renal
[44] = test system: EKVX NSCLC
[45] = test system: LOX IMVI melanoma
[46] = test system: HCT-116 colon
[47] = test system: SF-268 CNS
[48] = test system: COLO 205 colon
[49] = test system: MALME-3M melanoma
[50] = test system: SF-295 CNS
[51] = test system: SF-539 CNS
[52] = test system: ACHN renal
[53] = test system: K-562 leukemia
[54] = test system: DMS 273 small cell lung
[55] = test system: DMS 114 small cell lung
[56] = test system: MOLT-4 leukemia
[57] = test system: HCT-15 colon
[58] = test system: SR leukemia
[59] = test system: SK-MEL-2 melanoma

Compound: C/C(=N\NC(=S)N1CCC(C2CCN(C(=S)N/N=C(\C)c3ccccn3)CC2)CC1)c1ccccn1
- TGI [1]: > 100 µM
- TGI [2]: > 100 µM
- TGI [3]: > 100 µM
- TGI [4]: > 100 µM
- TGI [5]: > 100 µM
- TGI [6]: > 100 µM
- TGI [7]: > 100 µM
- TGI [8]: > 100 µM
- TGI [9]: > 100 µM
- TGI [10]: 67.4 µM
- TGI [11]: 86.5 µM
- TGI [12]: > 100 µM
- TGI [13]: > 100 µM
- TGI [14]: > 100 µM
- TGI [15]: > 100 µM
- TGI [16]: > 100 µM
- TGI [17]: > 100 µM
- TGI [18]: > 100 µM
- TGI [19]: > 100 µM
- TGI [20]: > 100 µM
- TGI [21]: > 100 µM
- TGI [22]: > 100 µM
- TGI [23]: > 100 µM
- TGI [24]: > 100 µM
- TGI [25]: > 100 µM
- TGI [26]: > 100 µM
- TGI [27]: > 100 µM
- TGI [28]: > 100 µM
- TGI [29]: > 100 µM
- TGI [30]: > 100 µM
- TGI [31]: > 100 µM
- TGI [32]: > 100 µM
- TGI [33]: > 100 µM
- TGI [34]: > 100 µM
- TGI [35]: > 100 µM
- TGI [36]: > 100 µM
- TGI [37]: > 100 µM
- TGI [38]: > 100 µM
- TGI [39]: > 100 µM
- TGI [40]: > 100 µM
- TGI [41]: > 100 µM
- TGI [42]: > 100 µM
- TGI [43]: > 100 µM
- TGI [44]: > 100 µM
- TGI [45]: > 100 µM
- TGI [46]: > 100 µM
- TGI [47]: > 100 µM
- TGI [48]: > 100 µM
- TGI [49]: > 100 µM
- TGI [50]: > 100 µM
- TGI [51]: > 100 µM
- TGI [52]: > 100 µM
- TGI [53]: > 100 µM
- TGI [54]: > 100 µM

Compound: COC(=O)C(=O)C(C(=O)C(=O)Nc1ccccc1C(N)=O)c1nc2ccc(C(=O)c3ccccc3)cc2[nH]c1=O (stereo unspecified)
- TGI [1]: > 100 µM
- TGI [2]: > 100 µM
- TGI [4]: > 100 µM
- TGI [5]: > 100 µM
- TGI [6]: > 100 µM
- TGI [7]: > 100 µM
- TGI [9]: > 100 µM
- TGI [11]: > 100 µM
- TGI [12]: > 100 µM
- TGI [13]: > 100 µM
- TGI [14]: > 100 µM
- TGI [15]: > 100 µM
- TGI [17]: > 100 µM
- TGI [18]: > 100 µM
- TGI [19]: > 100 µM
- TGI [55]: > 100 µM
- TGI [20]: > 100 µM
- TGI [21]: > 100 µM
- TGI [22]: > 100 µM
- TGI [23]: > 100 µM
- TGI [24]: > 100 µM
- TGI [25]: > 100 µM
- TGI [56]: > 100 µM
- TGI [26]: > 100 µM
- TGI [27]: > 100 µM
- TGI [30]: > 100 µM
- TGI [31]: 93.8 µM
- TGI [57]: > 100 µM
- TGI [32]: > 100 µM
- TGI [33]: > 100 µM
- TGI [58]: > 100 µM
- TGI [34]: > 100 µM
- TGI [35]: > 100 µM
- TGI [36]: > 100 µM
- TGI [59]: > 100 µM
- TGI [38]: > 100 µM
- TGI [39]: > 100 µM
- TGI [40]: > 100 µM
- TGI [41]: 65.4 µM
- TGI [42]: > 100 µM
- TGI [43]: > 100 µM
- TGI [44]: > 100 µM
- TGI [46]: > 100 µM
- TGI [47]: > 100 µM
- TGI [48]: > 100 µM
- TGI [49]: > 100 µM
- TGI [50]: > 100 µM
- TGI [51]: > 100 µM
- TGI [52]: > 100 µM
- TGI [53]: > 100 µM
- TGI [54]: > 100 µM

Compound: CCOC(=N)CC(=O)NC(C)c1ccccc1 (stereo unspecified)
- TGI [1]: > 100 µM
- TGI [2]: > 100 µM
- TGI [3]: > 100 µM
- TGI [4]: > 100 µM
- TGI [6]: > 100 µM
- TGI [7]: > 100 µM
- TGI [8]: > 100 µM
- TGI [9]: > 100 µM
- TGI [10]: > 100 µM
- TGI [11]: > 100 µM
- TGI [12]: > 100 µM
- TGI [13]: > 100 µM
- TGI [14]: > 100 µM
- TGI [15]: > 100 µM
- TGI [16]: > 100 µM
- TGI [17]: > 100 µM
- TGI [18]: > 100 µM
- TGI [19]: > 100 µM
- TGI [20]: > 100 µM
- TGI [21]: > 100 µM
- TGI [22]: > 100 µM
- TGI [23]: > 100 µM
- TGI [24]: > 100 µM
- TGI [25]: > 100 µM
- TGI [56]: > 100 µM
- TGI [26]: > 100 µM
- TGI [27]: > 100 µM
- TGI [29]: > 100 µM
- TGI [30]: > 100 µM
- TGI [31]: > 100 µM
- TGI [57]: > 100 µM
- TGI [32]: > 100 µM
- TGI [33]: > 100 µM
- TGI [58]: > 100 µM
- TGI [34]: > 100 µM
- TGI [35]: > 100 µM
- TGI [36]: > 100 µM
- TGI [37]: > 100 µM
- TGI [59]: > 100 µM
- TGI [38]: > 100 µM
- TGI [39]: > 100 µM
- TGI [40]: > 100 µM
- TGI [41]: > 100 µM
- TGI [42]: > 100 µM
- TGI [43]: > 100 µM
- TGI [44]: > 100 µM
- TGI [45]: > 100 µM
- TGI [46]: > 100 µM
- TGI [47]: > 100 µM
- TGI [48]: > 100 µM
- TGI [49]: > 100 µM
- TGI [50]: > 100 µM
- TGI [51]: > 100 µM
- TGI [52]: > 100 µM
- TGI [53]: > 100 µM
- TGI [54]: > 100 µM
